# Biological target: T1, human 11β-HSD1 (Homo sapiens, UniProt P28845)
# T1 construct: host or cells: microsome fraction
# Experiment: Enzymatic 11beta-HSD1 test (SPA-based detection)
# Type: biochemical
# Conditions: human 11β-HSD1 microsome fraction, [1,2-3H]-cortisone, NADPH, 37° C. 1 hour
# In short: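 Human 11β-HSD1 microsomes (0.2 µg protein) converted [1,2-3H]-cortisone ([…]) for 1 h at 37 °C. The reaction buffer was HEPES/KCl/NaCl/MgCl2 with 0.25 mM NADPH, with compounds added in DMSO. The reaction was stopped with SPA beads, anti-cortisol monoclonal antibody and 0.01 mM SSR110887; after 1 h at room temperature, [3H]-cortisol was scintillation-counted.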
# T1 sequence (P28845 whole entry): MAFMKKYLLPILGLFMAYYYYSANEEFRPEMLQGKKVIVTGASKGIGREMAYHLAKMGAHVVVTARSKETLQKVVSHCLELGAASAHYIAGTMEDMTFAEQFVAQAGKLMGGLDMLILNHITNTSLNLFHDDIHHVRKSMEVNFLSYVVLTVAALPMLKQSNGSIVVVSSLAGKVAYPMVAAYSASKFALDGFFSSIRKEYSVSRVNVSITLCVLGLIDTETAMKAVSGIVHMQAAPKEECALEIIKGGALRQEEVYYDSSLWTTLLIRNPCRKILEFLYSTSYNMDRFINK
row,IC50,SMILES
1,8 nM,"Cn1cc(-c2ccc(C3C(C)(C)OC(N[C@@H](CCO)c4ccccc4F)=NS3(=O)=O)cc2)cn1 (stereo partly drawn) [Example 124, (S)-3-{6,6-Dimethyl-5-[4-(1-methyl-1H-pyrazol-yl)-phenyl]-4,4-dioxo-5,6-dihydro-4H-4lambda6-[1,4,3]oxathiazin-2-ylamino}-3-(2-fluorophenyl)-propan-1-ol]"
2,4 nM,"CN1CCN(c2ncc(-c3ccc(C4C(C)(C)OC(N[C@@H](CCO)c5ccccc5F)=NS4(=O)=O)cc3)cn2)CC1 (stereo partly drawn) [Example 125, (S)-3-(6,6-Dimethyl-5-{4-[2-(4-methyl-piperazin-1-yl)-pyrimidin-5-yl]-phenyl}-4,4-dioxo-5,6-dihydro-4H-4lambda6-[1,4,3]oxathiazin-2-ylamino)-3-(2-fluorophenyl)-propan-1-ol]"
3,18 nM,"CC1(C)OC(N[C@@H](CCO)c2ccccc2F)=NS(=O)(=O)C1c1ccc(CN2CCOCC2)cc1 (stereo partly drawn) [Example 129, (S)-3-[6,6-Dimethyl-5-(4-morpholin-4-ylmethyl-phenyl)-4,4-dioxo-5,6-dihydro-4H-4lambda6-[1,4,3]oxathiazin-2-ylamino]-3-(2-fluorophenyl)-propan-1-ol]"
4,14 nM,"CC1(C)OC(N[C@@H](CCO)c2ccccc2F)=NS(=O)(=O)C1c1ccc(N2CCCC2=O)cc1 (stereo partly drawn) [Example 132, 1-(4-{2-[(S)-1-(2-fluorophenyl)-3-hydroxy-propylamino]-6,6-dimethyl-4,4-dioxo-5,6-dihydro-4H-4lambda6-[1,4,3]oxathiazin-5-yl}-phenyl)-pyrrolidin-2-one]"
5,7 nM,"CN1CCN(c2cnc(-c3ccc(C4C(C)(C)OC(N[C@@H](CCO)c5ccccc5F)=NS4(=O)=O)cc3)cn2)CC1 (stereo partly drawn) [Example 133, (S)-3-{6,6-Dimethyl-5-[4-(4-methyl-3,4,5,6-tetrahydro-2H-[1,2′]bipyrazinyl-5′-yl)-phenyl]-4,4-dioxo-5,6-dihydro-4H-4lambda6-[1,4,3]oxathiazin-2-ylamino}-3-(2-fluorophenyl)-propan-1-ol]"
6,59 nM,CC1(C)OC(N[C@@H](CCO)c2ccccc2F)=NS(=O)(=O)C1c1ccc(N2CCN(CCO)CC2)cc1 (stereo partly drawn) [Example 135]
7,63 nM,"CN1CCN(Cc2ccc(C3C(C)(C)OC(N[C@@H](CCO)c4ccccc4F)=NS3(=O)=O)cc2)CC1 (stereo partly drawn) [Example 136, (S)-3-{6,6-Dimethyl-5-[4-(4-methyl-piperazin-1-ylmethyl)-phenyl]-4,4-dioxo-5,6-dihydro-4H-4lambda6-[1,4,3]oxathiazin-2-ylamino}-3-(2-fluoro-phenyl)-propan-1-ol]"
8,70 nM,"CN1CCN(CCOc2ccc(C3C(C)(C)OC(N[C@@H](CCO)c4ccccc4F)=NS3(=O)=O)cc2)CC1 (stereo partly drawn) [Example 137, (S)-3-(6,6-Dimethyl-5-{4-[2-(4-methyl-piperazin-1-yl)-ethoxy]-phenyl}-4,4-dioxo-5,6-dihydro-4H-4lambda6-[1,4,3]oxathiazin-2-ylamino)-3-(2-fluoro-phenyl)-propan-1-ol]"
9,61 nM,"CC1(C)OC(N[C@@H](CCO)c2ccccc2F)=NS(=O)(=O)C1c1ccc(N2CCN(C(C)(C)C)CC2)cc1 (stereo partly drawn) [Example 138, (S)-3-{5-[4-(4-tert-Butyl-piperazin-1-yl)-phenyl]-dimethyl-4,4-dioxo-5,6-dihydro-4H-4lambda6-[1,4,3]oxathiazin-2-ylamino}-3-(2-fluorophenyl)-propan-1-ol]"
10,69 nM,CC1(C)OC(N[C@@H](CCO)c2ccccc2F)=NS(=O)(=O)C1c1ccc(CCN2CCOCC2)cc1 (stereo partly drawn) [Example 140]
11,10 nM,CC(=O)c1ccc(C2C(C)(C)OC(N[C@@H](CCO)c3ccccc3F)=NS2(=O)=O)cc1 (stereo partly drawn) [Example 144]

# More lines, now with the values behind:
row,SMILES,IC50
1,"CN(C)Cc1ccc(-c2ccc(C3C(C)(C)OC(N[C@@H](CCO)c4ccccc4F)=NS3(=O)=O)cc2)cc1 (stereo partly drawn) [Example 123, (S)-3-[5-(4′-Dimethylaminomethyl-biphenyl-4-yl)-6,6-dimethyl-4,4-dioxo-5,6-dihydro-4H-4lambda6-[1,4,3]oxathiazin-2-ylamino]-3-(2-fluorophenyl)-propan-1-ol]",13 nM
2,"CN(C)c1cccc(-c2ccc(C3C(C)(C)OC(N[C@@H](CCO)c4ccccc4F)=NS3(=O)=O)cc2)n1 (stereo partly drawn) [Example 126, (S)-3-{5-[4-(6-Dimethylamino-pyridin-2-yl)-phenyl]-6,6-dimethyl-4,4-dioxo-5,6-dihydro-4H-4lambda6-[1,4,3]oxathiazin-2-ylamino}-3-(2-fluorophenyl)-propan-1-ol]",19 nM
3,CC1(C)OC(N[C@@H](CCO)c2ccccc2F)=NS(=O)(=O)C1c1ccc(-c2ccnc(C#N)c2)cc1 (stereo partly drawn) [Example 127],6 nM
4,"CC1(C)OC(N[C@@H](CCO)c2ccccc2F)=NS(=O)(=O)C1c1ccc(-c2cc[nH]n2)cc1 (stereo partly drawn) [Example 128, (S)-3-{6,6-Dimethyl-4,4-dioxo-5-[4-(1H-pyrazol-3-yl)-phenyl]-5,6-dihydro-4H-4lambda6-[1,4,3]oxathiazin-2-ylamino}-3-(2-fluorophenyl)-propan-1-ol]",10 nM
5,"CC1(C)OC(N[C@@H](CCO)c2ccccc2F)=NS(=O)(=O)C1c1ccc(Nc2ncccn2)cc1 (stereo partly drawn) [Example 130, (S)-3-{6,6-Dimethyl-4,4-dioxo-5-[4-(pyrimidin-2-ylamino)-phenyl]-5,6-dihydro-4H-4lambda6-[1,4,3]oxathiazin-2-ylamino}-3-(2-fluorophenyl)-propan-1-ol]",20 nM
6,"CC1(C)OC(N[C@@H](CCO)c2ccccc2F)=NS(=O)(=O)C1c1ccc(-c2ccccn2)cc1 (stereo partly drawn) [Example 134, (S)-3-[6,6-Dimethyl-4,4-dioxo-5-(4-pyridin-2-yl-phenyl)-5,6-dihydro-4H-4lambda6-[1,4,3]oxathiazin-2-ylamino]-3-(2-fluorophenyl)-propan-1-ol]",11 nM
7,"COc1ncc(-c2ccc(C3C(C)(C)OC(N[C@@H](CCO)c4ccccc4F)=NS3(=O)=O)cc2)cn1 (stereo partly drawn) [Example 139, (S)-3-(2-fluorophenyl)-3-{5-[4-(2-methoxy-pyrimidin-5-yl)-phenyl]-6,6-dimethyl-4,4-dioxo-5,6-dihydro-4H-4lambda6-[1,4,3]oxathiazin-2-ylamino}-propan-1-ol]",5 nM
8,"CC1(C)OC(N[C@@H](CCO)c2ccccc2F)=NS(=O)(=O)C1c1ccc(N2C(=O)c3ccccc3C2=O)cc1 (stereo partly drawn) [Example 141, 2-(4-{2-[(S)-1-(2-fluorophenyl)-3-hydroxy-propylamino]-6,6-dimethyl-4,4-dioxo-5,6-dihydro-4H-4lambda6-[1,4,3]oxathiazin-5-yl}-phenyl)-isoindole-1,3-dione]",14 nM
9,"CC1(C)OC(N[C@@H](CCO)c2ccccc2F)=NS(=O)(=O)C1c1ccc(NC2CCN(C3CC3)CC2)cc1 (stereo partly drawn) [Example 142, (S)-3-{5-[4-(1-Cyclopropyl-piperidin-4-ylamino)-phenyl]-6,6-dimethyl-4,4-dioxo-5,6-dihydro-4H-4lambda6-[1,4,3]oxathiazin-2-ylamino}-3-(2-fluoro-phenyl)-propan-1-ol]",64 nM
10,"CC1(C)OC(N[C@@H](CCO)c2ccccc2F)=NS(=O)(=O)C1c1ccc(C2CCN(CCC(F)(F)F)CC2)cc1 (stereo partly drawn) [Example 143, (S)-3-(6,6-Dimethyl-4,4-dioxo-5-{4-[1-(3,3,3-trifluoropropyl)-piperidin-4-yl]-phenyl}-5,6-dihydro-4H-4lambda6-[1,4,3]oxathiazin-2-ylamino)-3-(2-fluorophenyl)-propan-1-ol]",13 nM
